ChEMBL document CHEMBL4765339, “Design, synthesis, and biological evaluation of 4-substituted-3,4-dihydrobenzo[h]quinoline-2,5,6(1H)-triones as NQO1-directed antitumor agents” (Eur J Med Chem, 2020)
Active and inactive are the calls of the source. No cut-off for these calls is given here.

Experiments:
[1] = tested on: HepG2; assay: Induction of apoptosis in human HepG2 cells assessed as necrotic cells at 2.2 uM incubated for 24 hrs by annexinV-FITC and PI staining based flow cytometry analysis (reference value: 0.35 %); format: functional
[2] = Selectivity index, ratio of GI50 for human A549 cells pretreated for 1 hr with ROS scavenger, N-acetyl cysteine followed by incubation with compound for 48 hrs to GI50 for human A549 cells measured after 48 hrs by MTT assay; format: functional
[3] = tested on: HepG2; assay: Induction of ROS generation in human HepG2 cells at 5 uM incubated for 5 hrs in presence of dicoumarol by DCFH-DA staining based flow cytometry analysis; format: functional, cell-based
[4] = tested on: HepG2; assay: Induction of apoptosis in human HepG2 cells assessed as viable cells at 4.4 uM incubated for 24 hrs by annexinV-FITC and PI staining based flow cytometry analysis (reference value: 94.73 %); format: functional; conditions: read-out: Activity
[5] = tested on: HepG2; assay: Induction of apoptosis in human HepG2 cells assessed as viable cells at 1.1 uM incubated for 24 hrs by annexinV-FITC and PI staining based flow cytometry analysis (reference value: 94.73 %); format: functional; conditions: read-out: Activity
[6] = tested on: HepG2; assay: Induction of apoptosis in human HepG2 cells assessed as viable cells at 2.2 uM incubated for 24 hrs in presence of dicoumarol by annexinV-FITC and PI staining based flow cytometry analysis (reference value: 94.73 %); format: functional; conditions: read-out: Activity
[7] = tested on: HepG2; assay: Cytotoxicity against human HepG2 cells assessed as reduction in cell growth pretreated for 1 hr with ROS scavenger, N-acetyl cysteine followed by incubation with compound for 48 hrs by MTT assay; format: functional
[8] = tested on: HepG2; assay: Induction of apoptosis in human HepG2 cells assessed as late apoptotic cells at 1.1 uM incubated for 24 hrs by annexinV-FITC and PI staining based flow cytometry analysis (reference value: 2.27 %); format: functional
[9] = tested on: HepG2; assay: Antitumor activity against human HepG2 cells xenografted in athymic nude mouse assessed as inhibition of tumor growth at 10 mg/kg, iv administered once every 2 days for 19 days by caliper analysis relative to control; format: functional; conditions: 456 h, time 19 day
[10] = tested on: HepG2; assay: Induction of apoptosis in human HepG2 cells assessed as viable cells at 2.2 uM incubated for 24 hrs by annexinV-FITC and PI staining based flow cytometry analysis (reference value: 94.73 %); format: functional; conditions: read-out: Activity
[11] = tested on: HepG2; assay: Induction of apoptosis in human HepG2 cells assessed as late apoptotic cells at 2.2 uM incubated for 24 hrs in presence of dicoumarol by annexinV-FITC and PI staining based flow cytometry analysis (reference value: 2.27 %); format: functional
[12] = Selectivity index, ratio of GI50 for human HepG2 cells pretreated for 1 hr with ROS scavenger, N-acetyl cysteine followed by incubation with compound for 48 hrs to GI50 for human HepG2 cells measured after 48 hrs by MTT assay; format: functional
[13] = biological target: NAD(P)H dehydrogenase [quinone] 1 (Homo sapiens) (UniProt P15559); assay: Substrate activity at recombinant human C-terminal His-tagged NQO1 (1 to 274 residues) expressed in Escherichia coli assessed as enzyme activity by measuring oxidation of NADPH incubated for 5 mins measured per micromol of enzyme every 5 sec for 1 mins by UV-visible spectrophotometry
[14] = tested on: A549; assay: Cytotoxicity against human A549 cells assessed as reduction in cell growth pretreated for 1 hr with NQO1 inhibitor, dicoumarol followed by incubation with compound for 48 hrs by MTT assay; format: functional
[15] = Selectivity index, ratio of GI50 for human A549 cells pretreated for 1 hr with NQO1 inhibitor, dicoumarol followed by incubation with compound for 48 hrs to GI50 for human A549 cells measured after 48 hrs by MTT assay; format: functional
[16] = tested on: HepG2; assay: Induction of apoptosis in human HepG2 cells incubated for 24 hrs by annexinV-FITC and PI staining based flow cytometry analysis; format: functional, cell-based; conditions: dose 1.1-4.4 µM
[17] = tested on: A549; assay: Cytotoxicity against human A549 cells assessed as reduction in cell growth incubated for 48 hrs by MTT assay; format: functional
[18] = tested on: HepG2; assay: Induction of apoptosis in human HepG2 cells assessed as late apoptotic cells at 4.4 uM incubated for 24 hrs by annexinV-FITC and PI staining based flow cytometry analysis (reference value: 2.27 %); format: functional
[19] = tested on: HepG2; assay: Induction of mitochondrial membrane potential loss in human HepG2 cells at 2.2 uM incubated for 48 hrs by JC-1 staining based flow cytometry analysis (reference value: 2.06 %); format: functional
[20] = tested on: HepG2; assay: Induction of cell cycle arrest in human HepG2 cells assessed as increase in accumulation at S/G2 phase incubated for 24 hrs by PI staining based flow cytometry analysis; format: functional; conditions: dose 0.75-3 µM
[21] = Toxicity in athymic nude mouse xenografted with human HepG2 cells assessed as effect on body weight at 10 to 20 mg/kg, iv administered once every 2 days for 19 days; format: organism-based; conditions: in vivo, 456 h, dose 10-20 mg/kg, time 19 day
[22] = tested on: HepG2; assay: Induction of apoptosis in human HepG2 cells assessed as early apoptotic cells at 2.2 uM incubated for 24 hrs by annexinV-FITC and PI staining based flow cytometry analysis (reference value: 2.65 %); format: functional
[23] = tested on: HepG2; assay: Induction of mitochondrial membrane potential loss in human HepG2 cells at 4.4 uM incubated for 48 hrs by JC-1 staining based flow cytometry analysis (reference value: 2.06 %); format: functional
[24] = tested on: HepG2; assay: Induction of mitochondrial membrane potential loss in human HepG2 cells at 1.1 uM incubated for 48 hrs by JC-1 staining based flow cytometry analysis (reference value: 2.06 %); format: functional
[25] = biological target: NAD(P)H dehydrogenase [quinone] 1 (Homo sapiens) (UniProt P15559); assay: Substrate activity at recombinant human C-terminal His-tagged NQO1 (1 to 274 residues) expressed in Escherichia coli assessed as enzyme activity by measuring oxidation of NADPH incubated for 5 mins measured every 5 sec for 1 mins by UV-visible spectrophotometry relative to beta-lapachone
[26] = tested on: HepG2; assay: Induction of apoptosis in human HepG2 cells assessed as early apoptotic cells at 2.2 uM incubated for 24 hrs in presence of dicoumarol by annexinV-FITC and PI staining based flow cytometry analysis (reference value: 2.65 %); format: functional
[27] = tested on: HepG2; assay: Cytotoxicity against human HepG2 cells assessed as reduction in cell growth incubated for 48 hrs by MTT assay; format: functional
[28] = tested on: HepG2; assay: Induction of apoptosis in human HepG2 cells assessed as early apoptotic cells at 4.4 uM incubated for 24 hrs by annexinV-FITC and PI staining based flow cytometry analysis (reference value: 2.65 %); format: functional
[29] = Selectivity index, ratio of GI50 for human HepG2 cells pretreated for 1 hr with NQO1 inhibitor, dicoumarol followed by incubation with compound for 48 hrs to GI50 for human HepG2 cells measured after 48 hrs by MTT assay; format: functional
[30] = tested on: HepG2; assay: Antitumor activity against human HepG2 cells xenografted in athymic nude mouse assessed as inhibition of tumor growth administered intravenously once every 2 days for 19 days by caliper analysis; format: functional, cell-based; conditions: dose 10-20 mg/kg, time 19.0 day
[31] = tested on: HepG2; assay: Induction of apoptosis in human HepG2 cells assessed as necrotic cells at 2.2 uM incubated for 24 hrs in presence of dicoumarol by annexinV-FITC and PI staining based flow cytometry analysis (reference value: 0.35 %); format: functional
[32] = Selectivity index, ratio of GI50 for human L02 cells to GI50 for human HepG2 cells measured after 48 hrs by MTT assay; format: toxicity; conditions: L02 cells and HepG2 cells, read-out: RatioGI50

COc1ccc(C2CC(=O)NC3=C2C(=O)C(=O)c2ccccc23)cc1O (configuration not stated)
Activity [1]: 0.93%
RatioGI50 [2]: 2
Activity [3]: inactive
viability at 4.4 µM [4]: 66.5%
viability at 1.1 µM [5]: 82.4%
viability at 2.2 µM [6]: 81.6%
GI50 [7]: 5.65 µM
Activity [8]: 8.9%
inhibition in vivo at 10 mg/kg [9]: 27.2%
viability at 2.2 µM [10]: 76%
Activity [11]: 9.46%
RatioGI50 [12]: 2
Activity [13]: 2770 µmol/min
GI50 [14]: 5.3 µM
RatioGI50 [15]: 2
Activity [16]: Dose-dependent effect
GI50 [17]: 3.13 µM
Activity [18]: 17.46%
Activity [19]: 11.03%
Activity [20]: Dose-dependent effect
Activity [21]: Non-Toxic
Activity [22]: 10.85%
Activity [23]: 18.12%
Activity [24]: 7.42%
fold change (FC) [25]: > 2
Activity [26]: 8.28%
GI50 [27]: 2.23 µM
Activity [28]: 14.96%
RatioGI50 [29]: 2
TGI [30]: Dose-dependent effect
Activity [31]: 0.69%
selectivity ratio at 48 h [32]: 2
